Source: ChEMBL document CHEMBL1909294, “Translating clinical findings into knowledge in drug safety evaluation--drug induced liver injury prediction system (DILIps)” (PLoS Comput Biol, 2011)
Where a SMILES comes first, the peptide text is derived from it. Bridges are numbered along the chain shown (N, C = ends). [ ]: non-standard residue; d: D form. The star is where a group is joined. Ileψ(thiazoline)Cys = CC[C@H](C)[C@H](N)C1=N[C@H](C(=O)*)CS1; dOrn = NCCC[C@@H](N)C(=O)O

Tests used:
[1] = tested on: Hepatotoxicity;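 as to HepSE bilirubinemia: bilirubinemia hepatic side effect score drawn from the DILIps training data, a prediction system for drug-induced liver injury; call rule not given here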;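 as to HepSE cholecystitis: Cholecystitis-related hepatic side effect score drawn from the DILIps (drug-induced liver injury prediction) training data set; call rule not given here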;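 as to HepSE cholelithiasis: hepatic side effect score for cholelithiasis, drawn from the DILIps training data for predicting drug-induced liver injury; call rule not given here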;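 as to HepSE cirrhosis: cirrhosis hepatic side effect score taken from the DILIps (drug-induced liver injury prediction) training set; call rule not given here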;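 as to HepSE elevated liver function tests: hepatic side effect score for raised liver function tests, as recorded in the DILIps training set used for predicting drug-induced liver injury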; as to HepSE hepatic failure: call rule not given here;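 as to HepSE hepatomegaly: hepatic side effect score for hepatomegaly, taken from the training set of the DILIps drug-induced liver injury prediction system; call rule not given here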
[2] = tested on: Hepatotoxicity; remark: listed apart in the source;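 as to HepSE bilirubinemia: bilirubinemia hepatic side effect score drawn from the DILIps training data, a prediction system for drug-induced liver injury; call rule not given here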;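 as to HepSE cholecystitis: Cholecystitis-related hepatic side effect score drawn from the DILIps (drug-induced liver injury prediction) training data set; call rule not given here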;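 as to HepSE cholelithiasis: hepatic side effect score for cholelithiasis, drawn from the DILIps training data for predicting drug-induced liver injury; call rule not given here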;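 as to HepSE cirrhosis: cirrhosis hepatic side effect score taken from the DILIps (drug-induced liver injury prediction) training set; call rule not given here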;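 as to HepSE elevated liver function tests: hepatic side effect score for raised liver function tests, as recorded in the DILIps training set used for predicting drug-induced liver injury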; as to HepSE hepatic failure: call rule not given here
[3] = tested on: Hepatotoxicity; remark: listed apart in the source;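 as to HepSE bilirubinemia: bilirubinemia hepatic side effect score drawn from the DILIps training data, a prediction system for drug-induced liver injury; call rule not given here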;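 as to HepSE cholecystitis: Cholecystitis-related hepatic side effect score drawn from the DILIps (drug-induced liver injury prediction) training data set; call rule not given here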;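 as to HepSE cholelithiasis: hepatic side effect score for cholelithiasis, drawn from the DILIps training data for predicting drug-induced liver injury; call rule not given here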;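 as to HepSE cirrhosis: cirrhosis hepatic side effect score taken from the DILIps (drug-induced liver injury prediction) training set; call rule not given here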;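 as to HepSE elevated liver function tests: hepatic side effect score for raised liver function tests, as recorded in the DILIps training set used for predicting drug-induced liver injury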; as to HepSE hepatic failure: call rule not given here
[4] = tested on: Hepatotoxicity; remark: listed apart in the source;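 as to HepSE bilirubinemia: bilirubinemia hepatic side effect score drawn from the DILIps training data, a prediction system for drug-induced liver injury; call rule not given here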;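 as to HepSE cholecystitis: Cholecystitis-related hepatic side effect score drawn from the DILIps (drug-induced liver injury prediction) training data set; call rule not given here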;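 as to HepSE cholelithiasis: hepatic side effect score for cholelithiasis, drawn from the DILIps training data for predicting drug-induced liver injury; call rule not given here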;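 as to HepSE cirrhosis: cirrhosis hepatic side effect score taken from the DILIps (drug-induced liver injury prediction) training set; call rule not given here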;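 as to HepSE elevated liver function tests: hepatic side effect score for raised liver function tests, as recorded in the DILIps training set used for predicting drug-induced liver injury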; as to HepSE hepatic failure: call rule not given here
[5] = tested on: Hepatotoxicity; remark: listed apart in the source; as to HepSE hepatic failure: call rule not given here
[6] = tested on: Hepatotoxicity; remark: listed apart in the source; as to HepSE hepatic failure: call rule not given here
[7] = tested on: Hepatotoxicity; remark: listed apart in the source
[8] = tested on: Hepatotoxicity; remark: listed apart in the source
[9] = tested on: Hepatotoxicity; remark: listed apart in the source
[10] = tested on: Hepatotoxicity; remark: listed apart in the source
[11] = tested on: Hepatotoxicity; remark: listed apart in the source
[12] = tested on: Hepatotoxicity; remark: listed apart in the source
[13] = tested on: Hepatotoxicity; remark: listed apart in the source
[14] = tested on: Hepatotoxicity; remark: listed apart in the source

SMILES	HepSE_bilirubinemia [1]	HepSE_cholecystitis [2]	HepSE_cholelithiasis [3]	HepSE_cirrhosis [4]	HepSE_elevated liver function tests [5]	HepSE_hepatic failure [6]	HepSE_hepatic necrosis [7]	HepSE_hepatitis [8]	HepSE_hepatomegaly [9]	HepSE_jaundice [10]	HepSE_liver disease [11]	HepSE_liver fatty [12]	HepSE_liver function tests abnormal [13]	HepSE_Combined Scores [14]	other results
C[C@H]1[C@H](NC(=O)/C(=N\OC(C)(C)C(=O)O)c2csc(N)n2)C(=O)N1S(=O)(=O)O [AZTREONAM]	0	0	0	0	0	0	0	1	0	1	0	0	0	2	–
CC[C@H](C)[C@H](N)C1=N[C@H](C(=O)N[C@@H](CC(C)C)C(=O)N[C@H](CCC(=O)O)C(=O)N[C@H](C(=O)N[C@H]2CCCCNC(=O)[C@H](CC(N)=O)NC(=O)[C@@H](CC(=O)O)NC(=O)[C@H](Cc3cnc[nH]3)NC(=O)[C@@H](Cc3ccccc3)NC(=O)[C@H]([C@@H](C)CC)NC(=O)[C@@H](CCCN)NC2=O)[C@@H](C)CC)CS1 [BACITRACIN] ({Ileψ(thiazoline)Cys}-L[dE]IK[dOrn]I[dF]H[dD]N; lactam 4-C)	0	0	0	0	0	0	0	0	0	0	0	0	0	0	–
NCC(CC(=O)O)c1ccc(Cl)cc1 (stereo not drawn) [BACLOFEN]	0	0	0	0	0	0	0	0	0	0	0	0	0	0	–
O=C(O)CCNC(=O)c1ccc(/N=N/c2ccc(O)c(C(=O)O)c2)cc1 [BALSALAZIDE]	0	0	0	1	1	1	1	0	0	1	0	0	0	5	–
C[C@H]1C[C@H]2[C@@H]3CCC4=CC(=O)C=C[C@]4(C)[C@@]3(Cl)[C@@H](O)C[C@]2(C)[C@@]1(O)C(=O)CO [BECLOMETHASONE]	0	0	0	0	0	0	0	0	0	0	0	0	0	0	–
CCOC(=O)[C@H](CCc1ccccc1)N[C@H]1CCc2ccccc2N(CC(=O)O)C1=O [BENAZEPRIL]	0	0	0	0	0	0	0	1	0	1	0	0	0	2	–
NS(=O)(=O)c1cc2c(cc1C(F)(F)F)NC(Cc1ccccc1)NS2(=O)=O (stereo not drawn) [BENDROFLUMETHIAZIDE]	0	0	0	0	0	0	0	1	0	1	0	0	0	2	–
O=C(OOC(=O)c1ccccc1)c1ccccc1 [BENZOYL PEROXIDE]	0	0	0	0	0	0	0	0	0	0	0	0	0	0	–
CN1[C@@H]2CC[C@H]1C[C@@H](OC(c1ccccc1)c1ccccc1)C2 [BENZTROPINE]	0	0	0	0	0	0	0	0	0	0	0	0	0	0	–
CN(C)CCCOc1nn(Cc2ccccc2)c2ccccc12 [BENZYDAMINE]	0	0	0	0	0	0	0	0	0	0	0	0	0	0	–
CNCCc1ccccn1 [BETAHISTINE]	0	0	0	0	0	0	0	0	0	0	0	0	0	0	–
C[N+](C)(C)CC(=O)O [BETAINE]	0	0	0	0	0	0	0	0	0	0	0	0	0	0	–
CC(C)NCC(O)COc1ccc(CCOCC2CC2)cc1 (stereo not drawn) [BETAXOLOL]	–	–	–	–	–	–	–	–	–	–	–	–	–	–	HepSE_bilirubinemia ([1]; Liver): 0; HepSE_cholecystitis ([2]; Liver): 0; HepSE_cholelithiasis ([3]; Liver): 0; HepSE_cirrhosis ([4]; Liver): 0; HepSE_elevated liver function tests ([5]; Liver): 0; HepSE_hepatic failure ([6]; Liver): 0; HepSE_hepatic necrosis ([7]; Liver): 0; HepSE_hepatitis ([8]; Liver): 0; HepSE_hepatomegaly ([9]; Liver): 0; HepSE_jaundice ([10]; Liver): 0; HepSE_liver disease ([11]; Liver): 0; HepSE_liver fatty ([12]; Liver): 0; HepSE_liver function tests abnormal ([13]; Liver): 0; HepSE_Combined Scores ([14]; Liver): 0
CC(C[N+](C)(C)C)OC(N)=O (stereo not drawn) [BETHANECHOL]	–	–	–	–	–	–	–	–	–	–	–	–	–	–	HepSE_bilirubinemia ([1]; Liver): 0; HepSE_cholecystitis ([2]; Liver): 0; HepSE_cholelithiasis ([3]; Liver): 0; HepSE_cirrhosis ([4]; Liver): 0; HepSE_elevated liver function tests ([5]; Liver): 0; HepSE_hepatic failure ([6]; Liver): 0; HepSE_hepatic necrosis ([7]; Liver): 0; HepSE_hepatitis ([8]; Liver): 0; HepSE_hepatomegaly ([9]; Liver): 0; HepSE_jaundice ([10]; Liver): 0; HepSE_liver disease ([11]; Liver): 0; HepSE_liver fatty ([12]; Liver): 0; HepSE_liver function tests abnormal ([13]; Liver): 0; HepSE_Combined Scores ([14]; Liver): 0
C=C(c1ccc(C(=O)O)cc1)c1cc2c(cc1C)C(C)(C)CCC2(C)C [BEXAROTENE]	1	0	0	0	0	1	0	0	0	0	0	0	0	2	–
CC(C)(Oc1ccc(CCNC(=O)c2ccc(Cl)cc2)cc1)C(=O)O [BEZAFIBRATE]	0	0	1	0	0	0	0	0	0	0	0	0	0	1	–
CC(O)(CS(=O)(=O)c1ccc(F)cc1)C(=O)Nc1ccc(C#N)c(C(F)(F)F)c1 (stereo not drawn) [BICALUTAMIDE]	0	0	0	0	0	1	0	0	0	1	0	0	1	3	–
